From patent publication US8445505B2 (IRM LLC, priority 2008, dated 2013)

target: T1, IGF1R Ba/F3 (Homo sapiens, UniProt P08069); test: Ba/F3 Cell Viability Inhibition Assay (Tel-TK transformed Ba/F3 lines); format: cell-based, murine; set-up: most likely, as the lines are called Tel-TK) or BCR (P11274); conditions: Tel-TK (IGF1R) transformed Ba/F3 cells, 48 hours incubation, cell viability (Britelite luminescence)
Source text: Ba/F3 is a murine IL-3-dependent pro-B lymphoma cell line. Parental Ba/F3 cells are used to generate a panel of sublines whose proliferation and survival is rendered IL-3-independent by stable transduction with individual tyrosine kinases activated by fusion with the amino-terminal portion of TEL (amino acid 1-375) or BCR. In order to generate Ba/F3 cell lines transformed by Tel-Tyrosine Kinase (TK) fusions, parental Ba/F3 cells are infected with a retrovirus harboring each TEL-fusion kinase and subjected to puromycin selection and IL-3 withdrawal to obtain IL-3-independent, transformed Ba/F3 cells.
Each transformed Ba/F3 cells are cultured in RPMI-1640 media (Gibco Cat #11875093, Carlsbad, Calif.) supplemented with 10% FBS (Hyclone Cat #SV30014.03, Logan, Utah), 4.5 g/L glucose (Sigma #G5400, St.Louis, Mo.), 1.5 g/L sodium bicarbonate (Biowhittaker #17-613E, Walkersville, Md.) and Pen/Strep (Gibco #10378-016, Carlsbad, Calif.). Cells are splitted twice weekly.
The potency of test compounds against various Tel-TK transformed Ba/F3 lines is determined as follows. Exponentially growing BaF3 Tel-TK cells are diluted in fresh medium to 75,000 cells/mL and seeded into 384-well plates (3750 cells/well) at 50 μL/well using a gill liquid dispenser (BioTek, Winooski, Vt., USA). […] 25 μL Britelite (Perkin Elmer) is added and luminescence is quantified using Analyst GT (Molecular Devices). […]

T1 sequence (P08069 999-1274 limits assumed): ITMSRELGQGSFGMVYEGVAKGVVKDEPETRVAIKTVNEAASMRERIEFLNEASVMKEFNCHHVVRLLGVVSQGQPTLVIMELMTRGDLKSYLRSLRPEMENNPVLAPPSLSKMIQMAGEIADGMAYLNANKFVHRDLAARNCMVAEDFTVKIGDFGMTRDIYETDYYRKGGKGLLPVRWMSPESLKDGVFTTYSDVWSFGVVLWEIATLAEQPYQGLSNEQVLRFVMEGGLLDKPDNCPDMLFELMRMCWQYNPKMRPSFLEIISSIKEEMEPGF

**Q.** Which IC50 does the source give for `Cc1cc(Nc2nc(Nc3cc(C)c(-c4cccnc4)cc3C)ncc2Cl)n[nH]1` [Compound 13] here?
**A.** The IC50 was 29 nM.

target: T1, IGF1R Ba/F3; test: as above; format: cell-based, murine; set-up: the printed alternative; conditions: Tel-TK (IGF1R) transformed Ba/F3 cells, 48 hours incubation, cell viability (Britelite luminescence); remark: another data set of the same source
Procedure, shortened: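 Murine pro-B Ba/F3 cells made IL-3-independent by TEL(1-375)- or BCR-fused tyrosine kinases; parental line run with 1 ng/ml IL-3 (final). 3750 cells/well exposed to DMSO-diluted compound for 48 h at 37 °C; viability read by Britelite luminescence. IC50 from logistic fit, concentration reducing viability to 50% of DMSO control.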

**Q.** For `Cc1cc(Nc2nc(Nc3cc(C)c([C@H]4CC[C@@H](N5CCOCC5)CC4)cc3C)ncc2C(F)(F)F)n[nH]1` [Compound 66, N^2-(2,5-dimethyl-4-(cis-4-morpholinocyclohexyl)phenyl)-N^4-(5-methyl-1H-pyrazol-3-yl)-5-(trifluoromethyl)pyrimidine-2,4-diamine], which IC50 is on record?
**A.** Its IC50 is 14 nM.

**Q.** Which IC50 does the source give for `Cc1cc(Nc2nc(Nc3cc(C)c([C@H]4CC[C@H](N5CCOCC5)CC4)cc3C)ncc2C(F)(F)F)n[nH]1` [Compound 67, N^2-(2,5-dimethyl-4-(trans-4-morpholinocyclohexyl)phenyl)-N^4-(5-methyl-1H-pyrazol-3-yl)-5-(trifluoromethyl)pyrimidine-2,4-diamine] here?
**A.** Its IC50 is 9 nM.

**Q.** Which IC50 does the source give for `Cc1cc(Nc2nc(Nc3cc(C)c([C@H]4CC[C@@H](N5C[C@H](O)[C@@H](O)C5)CC4)cc3F)ncc2C(F)(F)F)n[nH]1` [Compound 68, (3S,4S)-1-((cis)-4-(5-fluoro-2-methyl-4-(4-(5-methyl-1H-pyrazol-3-ylamino)-5-(trifluoromethyl)pyrimidin-2-ylamino)phenyl)cyclohexyl)pyrrolidine-3,4-diol] here?
**A.** Its IC50 is 120 nM.

**Q.** `Cc1cc(Nc2nc(Nc3cc(C)c([C@H]4CC[C@H](N5C[C@H](O)[C@@H](O)C5)CC4)cc3F)ncc2C(F)(F)F)n[nH]1` [Compound 69, (3S,4S)-1-((trans)-4-(5-fluoro-2-methyl-4-(4-(5-methyl-1H-pyrazol-3-ylamino)-5-(trifluoromethyl)pyrimidin-2-ylamino)phenyl)cyclohexyl)pyrrolidine-3,4-diol] was tested. Which IC50 did it give?
**A.** Its IC50 is 302 nM.

**Q.** `Cc1cc(Nc2nc(Nc3cc(C)c([C@H]4CC[C@H](N5C[C@@H](O)[C@H](O)C5)CC4)cc3F)ncc2C(F)(F)F)n[nH]1` [Compound 70, (3R,4R)-1-((trans)-4-(5-fluoro-2-methyl-4-(4-(5-methyl-1H-pyrazol-3-ylamino)-5-(trifluoromethyl)pyrimidin-2-ylamino)phenyl)cyclohexyl)pyrrolidine-3,4-diol] was tested. Which IC50 did it give?
**A.** The IC50 was 248 nM.

**Q.** How did the IC50 turn out when `Cc1cc(Nc2nc(Nc3cc(C)c([C@H]4CC[C@@H](N5C[C@@H](O)[C@H](O)C5)CC4)cc3F)ncc2C(F)(F)F)n[nH]1` [Compound 71, (3R,4R)-1-((cis)-4-(5-fluoro-2-methyl-4-(4-(5-methyl-1H-pyrazol-3-ylamino)-5-(trifluoromethyl)pyrimidin-2-ylamino)phenyl)cyclohexyl)pyrrolidine-3,4-diol] was run?
**A.** Its IC50 is 109 nM.

**Q.** `Cc1cc(Nc2nc(Nc3cc(C)c([C@H]4CC[C@H](O)CC4)cc3F)ncc2Cl)n[nH]1` [Compound 72, Trans-4-(4-(5-chloro-4-(5-methyl-1H-pyrazol-3-ylamino)pyrimidin-2-ylamino)-5-fluoro-2-methylphenyl)cyclohexanol] was tested. Which IC50 did it give?
**A.** Its IC50 is 99 nM.

**Q.** Which IC50 does the source give for `Cc1cc(Nc2nc(Nc3cc(C)c([C@H]4CC[C@@H](O)CC4)cc3F)ncc2Cl)n[nH]1` [Compound 73, Cis-4-(4-(5-chloro-4-(5-methyl-1H-pyrazol-3-ylamino)pyrimidin-2-ylamino)-5-fluoro-2-methylphenyl)cyclohexanol] here?
**A.** The IC50 was 32 nM.

**Q.** For `Cc1cc(Nc2nc(Nc3cc(C)c(-c4ccc5c(c4)CCNC5)cc3C)ncc2Cl)n[nH]1` [Compound 74, 5-chloro-N2-(2,5-dimethyl-4-(1,2,3,4-tetrahydroisoquinolin-6-yl)phenyl)-N4-(5-methyl-1H-pyrazol-3-yl)pyrimidine-2,4-diamine], which IC50 is on record?
**A.** The IC50 was 87 nM.

**Q.** For `Cc1cc(Nc2nc(Nc3cc(C)c(-c4ccc5c(c4)CCN(C)C5)cc3C)ncc2Cl)n[nH]1` [Compound 75, 5-chloro-N2-(2,5-dimethyl-4-(2-methyl-1,2,3,4-tetrahydroisoquinolin-6-yl)phenyl)-N4-(5-methyl-1H-pyrazol-3-yl)pyrimidine-2,4-diamine], which IC50 is on record?
**A.** The IC50 was 54 nM.

**Q.** `Cc1cc(Nc2nc(Nc3ccc(C4CCN(CC(N)=O)CC4)c(C)n3)ncc2Cl)n[nH]1` [Compound 76, 2-(4-(6-(5-chloro-4-(5-methyl-1H-pyrazol-3-ylamino)pyrimidin-2-ylamino)-2-methylpyridin-3-yl)piperidin-1-yl)acetamide] was tested. Which IC50 did it give?
**A.** Its IC50 is 1790 nM.

**Q.** With `Cc1cc(Nc2nc(Nc3ccc(C4CCN(CC(N)=O)CC4)c4ccncc34)ncc2Cl)n[nH]1` [Compound 77, 2-(4-(8-(5-chloro-4-(5-methyl-1H-pyrazol-3-ylamino)pyrimidin-2-ylamino)isoquinolin-5-yl)piperidin-1-yl)acetamide] as the compound, how does the IC50 read?
**A.** The IC50 was 3300 nM.

**Q.** How did the IC50 turn out when `Cc1cc(Nc2nc(Nc3ccc(C4CCN(CCS(C)(=O)=O)CC4)c4cccnc34)ncc2Cl)n[nH]1` [Compound 78, 5-chloro-N4-(5-methyl-1H-pyrazol-3-yl)-N2-(5-(1-(2-(methylsulfonyl)ethyl)piperidin-4-yl)quinolin-8-yl)pyrimidine-2,4-diamine] was run?
**A.** The IC50 was 412 nM.

**Q.** Which IC50 does the source give for `Cc1cc(Nc2nc(Nc3cc4c(cc3F)CN(C3CCNCC3)C4=O)ncc2Cl)n[nH]1` [Compound 79, 6-(5-chloro-4-(5-methyl-1H-pyrazol-3-ylamino)pyrimidin-2-ylamino)-5-fluoro-2-(piperidin-4-yl)isoindolin-1-one] here?
**A.** Its IC50 is 6400 nM.

**Q.** Which IC50 does the source give for `Cc1cc(Nc2nc(Nc3cc4c(cc3F)CN(C3CCNCC3)C4=O)ncc2Cl)no1` [Compound 80, 6-(5-chloro-4-(5-methylisoxazol-3-ylamino)pyrimidin-2-ylamino)-5-fluoro-2-(piperidin-4-yl)isoindolin-1-one] here?
**A.** The IC50 was 2650 nM.

**Q.** How did the IC50 turn out when `O=C1NCc2cc(F)c(Nc3ncc(Cl)c(Nc4cc(C5CC5)[nH]n4)n3)cc21` [Compound 81, 6-(5-chloro-4-(5-cyclopropyl-1H-pyrazol-3-ylamino)pyrimidin-2-ylamino)-5-fluoroisoindolin-1-one] was run?
**A.** Its IC50 is 2300 nM.

**Q.** With `Cc1cc(Nc2nc(Nc3cc4c(cc3F)CNC4=O)ncc2Cl)n[nH]1` [Compound 82, 6-(5-chloro-4-(5-methyl-1H-pyrazol-3-ylamino)pyrimidin-2-ylamino)-5-fluoroisoindolin-1-one] as the compound, how does the IC50 read?
**A.** The IC50 was 2630 nM.

**Q.** For `Cc1cc2c(Nc3ncc(Cl)c(Nc4cc(C)[nH]n4)n3)cccc2nn1` [Compound 83, 5-chloro-N4-(5-methyl-1H-pyrazol-3-yl)-N2-(3-methylcinnolin-5-yl)pyrimidine-2,4-diamine], which IC50 is on record?
**A.** The IC50 was 1450 nM.

**Q.** How did the IC50 turn out when `Cc1cc(Nc2nc(Nc3cc(C)c(C4CCN(CC(N)=O)CC4)cn3)ncc2Cl)n[nH]1` [Compound 84, 2-(4-(6-(5-Chloro-4-(5-methyl-1H-pyrazol-3-ylamino)pyrimidin-2-ylamino)-4-methylpyridin-3-yl)piperidin-1-yl)acetamide] was run?
**A.** Its IC50 is 525 nM.

**Q.** For `Cc1cc(Nc2nc(Nc3ccc(C4CCNCC4)c4ccccc34)ncc2Cl)n[nH]1` [Compound 85, 5-chloro-N^4-(5-methyl-1H-pyrazol-3-yl)-N^2-(4-(piperidin-4-yl)naphthalene-1-yl)pyrimidine-2,4-diamine], which IC50 is on record?
**A.** Its IC50 is 493 nM.

**Q.** How did the IC50 turn out when `Cc1cc(Nc2nc(Nc3ccc(C4CCN(CC(N)=O)CC4)c4ccccc34)ncc2Cl)n[nH]1` [Compound 86, 2-(4-(4-(5-chloro-4-(5-methyl-1H-pyrazol-3-ylamino)pyrimidin-2-ylamino)naphthalene-1-yl)piperidin-1-yl)acetamide] was run?
**A.** The IC50 was 107 nM.

**Q.** How did the IC50 turn out when `CNC(=O)CN1CCC(c2ccc(Nc3ncc(Cl)c(Nc4cc(C)[nH]n4)n3)c3ccccc23)CC1` [Compound 87, 2-(4-(4-(5-chloro-4-(5-methyl-1H-pyrazol-3-ylamino)pyrimidin-2-ylamino)naphthalen-1-yl)piperidin-1-yl)-N-methylacetamide] was run?
**A.** The IC50 was 82 nM.

**Q.** For `Cc1cc(Nc2nc(Nc3ccc(C4CCN(CC(O)C(F)(F)F)CC4)c4ccccc34)ncc2Cl)n[nH]1` (stereo not shown) [Compound 88, 3-(4-(4-(5-chloro-4-(5-methyl-1H-pyrazol-3-ylamino)pyrimidin-2-ylamino)naphthalen-1-yl)piperidin-1-yl)-1,1,1-trifluoropropan-2-ol], which IC50 is on record?
**A.** The IC50 was 346 nM.

**Q.** How did the IC50 turn out when `CCN1CCc2ccc(Nc3ncc(Cl)c(Nc4cc(C)[nH]n4)n3)cc2CC1` [Compound 89] was run?
**A.** Its IC50 is 88 nM.
